In publication PMC10818749, “Toxicity Studies of Cardiac-Targeting Peptide Reveal a Robust Safety Profile” (Pharmaceutics, 2024):
Entries after “also recorded” stand apart in the source; their conditions may differ. Ends that are not written are not given here.

Legend:
[1] = biological target: T1, HEK-Nav1.5 (Late, Antagonist) (Homo sapiens, UniProt Q14524); type: cell-based; conditions: CTP 0.1 to 30 µM; HEK cells; late current, ramp with 50nM ATXII; antagonist; 0.1% Pluronic F-68
T1 construct: CYL7004QB2DR (late); host or cells: HEK

[2] = biological target: NAV1.5 (Homo sapiens, UniProt Q14524); assay: in vitro; type: cell-based; conditions: up to 30 µM
Method: Ion Channel Assays: Cell lines were grown, plated, and loaded with 1× loading buffer containing 1× dye and 2.5 mM freshly prepared probenecid. Assays were performed, and activity was measured using a FLIPR Tetra. Percent of activation and percent of inhibition were calculated to determine agonist and antagonist activity, respectively. […]
The KINOMEscan screening platform employs a novel and propri- Membrane Potential Assay etary active site-directed competition binding assay to quantitatively The FLIPR® Membrane Potential Assay Kit is used which utilizes a pro-measure interactions between test compounds and the kinases. prietary fluorescent indicator dye in combination with a quencher to This robust and reliable assay technology affords investigators the reflect real-time membrane potential changes associated with ion ability to extensively annotate compounds with accurate, precise channel activation and ion transporter proteins. […]
Compounds that bind the kinase active site and directly (sterically) be monitored within a single experiment. […]
Upon stimulation, […]
a quantitative, precise and ultra-sensitive qPCR method that detects the receptor signals release of intracellular calcium, which results in the associated DNA label (D). In a similar manner, dissociation con- an increase of dye fluorescence. […]
1. Compound activity was measured on a FLIPR Tetra (MDS). […]

[3] = test system: CD1-wildtype mice; assay: Mouse toxicity studies (weight, blood count, serum chemistries); type: in vivo; conditions: for alkaline phosphatase level, individual mouse: female
Method: Mouse Toxicity Studies: Sixty CD1-wildtype mice (1:1 male to female ratio) were obtained from Charles River and divided into 6 groups of 10, 5 females and 5 males each. Ten control mice were injected with 1X PBS. Treated mice were injected intravenously with a single dose of CTP 150 μg/Kg. Groups of 10 treated mice (5 male, 5 female) were euthanized on day 0 (immediately after injection), 1, 2, 7, and 14 post-injection using inhalational CO2. After euthanasia, the chest cavity was opened, and blood drawn via cardiac puncture for complete blood count and serum chemistries. Following the blood draw, the right atrium was nicked and the whole animal perfusion fixed using 3 mL of formalin injected into the left ventricular apex. The control group was euthanized on day 2. A complete blood count, metabolic profile, and thyroid studies were performed.

[4] = female mice, CTP 150 μg/Kg single i.v., Day 0, recovered by Day 1
[5] = female mice, CTP 150 μg/Kg single i.v., vs control
[6] = male mice, CTP 150 μg/Kg single i.v., vs control

Sequence of NAV1.5 (Q14524 whole entry): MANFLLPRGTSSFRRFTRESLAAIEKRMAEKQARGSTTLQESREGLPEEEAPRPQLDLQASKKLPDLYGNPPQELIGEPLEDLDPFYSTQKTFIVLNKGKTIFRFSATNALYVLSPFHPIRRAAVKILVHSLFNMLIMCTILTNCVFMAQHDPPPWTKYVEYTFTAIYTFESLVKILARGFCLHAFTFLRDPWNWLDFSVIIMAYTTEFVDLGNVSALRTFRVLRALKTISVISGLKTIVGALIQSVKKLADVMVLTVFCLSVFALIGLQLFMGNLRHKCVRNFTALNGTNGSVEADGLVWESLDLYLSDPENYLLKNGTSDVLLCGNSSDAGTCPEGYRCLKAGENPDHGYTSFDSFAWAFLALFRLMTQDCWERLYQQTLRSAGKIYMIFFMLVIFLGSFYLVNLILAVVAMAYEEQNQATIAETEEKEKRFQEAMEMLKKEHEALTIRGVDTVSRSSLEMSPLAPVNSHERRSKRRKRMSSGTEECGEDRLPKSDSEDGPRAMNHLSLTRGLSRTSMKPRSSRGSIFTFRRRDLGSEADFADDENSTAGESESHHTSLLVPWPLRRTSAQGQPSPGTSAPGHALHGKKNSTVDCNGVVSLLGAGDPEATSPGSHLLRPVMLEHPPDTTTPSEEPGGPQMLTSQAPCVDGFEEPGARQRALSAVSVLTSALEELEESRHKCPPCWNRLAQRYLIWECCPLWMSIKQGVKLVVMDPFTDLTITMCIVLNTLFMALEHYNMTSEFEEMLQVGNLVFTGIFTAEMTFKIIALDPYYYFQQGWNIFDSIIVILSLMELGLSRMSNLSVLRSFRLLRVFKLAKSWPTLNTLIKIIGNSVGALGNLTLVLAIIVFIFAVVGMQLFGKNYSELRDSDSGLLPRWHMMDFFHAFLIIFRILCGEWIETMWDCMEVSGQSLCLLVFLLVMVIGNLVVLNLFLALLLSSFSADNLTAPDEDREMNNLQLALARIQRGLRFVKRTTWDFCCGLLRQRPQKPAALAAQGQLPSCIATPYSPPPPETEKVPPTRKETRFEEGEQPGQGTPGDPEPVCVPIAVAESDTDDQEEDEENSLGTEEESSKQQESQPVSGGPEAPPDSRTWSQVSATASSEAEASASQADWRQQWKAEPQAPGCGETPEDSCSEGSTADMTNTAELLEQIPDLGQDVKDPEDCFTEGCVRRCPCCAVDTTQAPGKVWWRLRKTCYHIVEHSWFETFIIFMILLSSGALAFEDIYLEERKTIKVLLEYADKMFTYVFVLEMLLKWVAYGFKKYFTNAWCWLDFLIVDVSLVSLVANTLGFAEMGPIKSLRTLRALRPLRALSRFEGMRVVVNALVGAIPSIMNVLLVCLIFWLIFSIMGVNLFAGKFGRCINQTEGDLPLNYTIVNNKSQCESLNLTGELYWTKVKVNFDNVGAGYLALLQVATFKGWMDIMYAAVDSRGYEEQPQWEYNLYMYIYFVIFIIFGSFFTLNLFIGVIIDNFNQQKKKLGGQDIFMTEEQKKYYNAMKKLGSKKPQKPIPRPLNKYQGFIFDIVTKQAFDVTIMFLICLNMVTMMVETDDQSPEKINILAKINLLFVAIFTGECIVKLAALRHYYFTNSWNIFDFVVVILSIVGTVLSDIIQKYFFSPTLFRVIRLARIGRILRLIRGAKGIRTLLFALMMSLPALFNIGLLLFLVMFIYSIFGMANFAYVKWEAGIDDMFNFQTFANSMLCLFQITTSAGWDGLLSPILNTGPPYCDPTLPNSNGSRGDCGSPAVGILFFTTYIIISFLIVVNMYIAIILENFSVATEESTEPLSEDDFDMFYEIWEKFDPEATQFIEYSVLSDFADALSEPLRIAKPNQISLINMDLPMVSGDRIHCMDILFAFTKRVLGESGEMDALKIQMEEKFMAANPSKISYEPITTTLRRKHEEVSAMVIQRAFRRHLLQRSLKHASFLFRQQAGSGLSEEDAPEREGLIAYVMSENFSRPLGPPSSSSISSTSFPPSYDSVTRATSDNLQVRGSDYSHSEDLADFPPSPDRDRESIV
T1 sequence (Q14524 whole entry): as above

APWHLSSQYSRT [CTP] was tested, and the “Estimated IC50” value [1] was “N/C (Not calculable, inhibition >25% was not observed.)”, the blocking or activation ([2]; SAFETYscan ion channel assay) was “no significant blocking or activation” and the IC50 ([2]; blocker, FLIPR Tetra, read-out: RC50 (the source's name)) was greater than 30 µM. For the same sequence, the toxicity signals overall ([3]; CTP 150 µg/Kg single dose, except borderline alkaline phosphatase increase in female mice) was “no significant toxicity signals”, the body weight ([3]; control vs injected mice of each sex, CTP 150 μg/Kg single i.v., two-week course) was “no significant difference” and the “mean alkaline phosphatase level” value ([3]; female mice, any of the groups, upper limit of normal not crossed, CTP 150 μg/Kg single i.v.) was no more than 140 IU/L. For the same sequence, the alkaline phosphatase recovery ([3]; female mice, CTP 150 μg/Kg single i.v.) was “returning to baseline by Day 2”, the platelet count [3, 4] was “decreased on Day 0; also recorded: significant decrease” and the “white blood cell count” value [3, 4] was “decreased on Day 0; also recorded: significant decrease”. The bilirubin ([3]; female mice, CTP 150 μg/Kg single i.v., only on Day 0, recovered by Day 1) was “significant decrease”, the alanine aminotransferase [3, 5] was “no significant difference” and the alkaline phosphatase change [3, 5] was “borderline increase in alkaline phosphatase levels in female mice on Days 0 and 1, with recovery to control levels by Day 2; also recorded: rise in alkaline phosphatase”. The aspartate aminotransferase [3, 5] was “no significant difference”, the blood urea nitrogen [3, 5] was “no significant difference” and the creatinine [3, 5] was “no significant difference”. For the same sequence, the hemoglobin [3, 5] was “no significant difference”, the “alkaline phosphatase level, individual mouse” value ([3]; day 0, first of two borderline elevated mice, CTP 150 μg/Kg single i.v.) was 151 IU/L and the “alkaline phosphatase level, individual mouse” value ([3]; day 0, second of two borderline elevated mice, CTP 150 μg/Kg single i.v.) was 166 IU/L. The calcium levels ([3]; male mice, CTP 150 μg/Kg single i.v., normalizing at later time-points) was “increased marginally only on Day 0”, the alanine aminotransferase [3, 6] was “no difference” and the alkaline phosphatase [3, 6] was “no difference”. For the same sequence, the aspartate aminotransferase [3, 6] was “no difference”, the blood urea nitrogen [3, 6] was “decrease; also recorded: significantly lower on Days 0–2” and the creatinine [3, 6] was “decrease; also recorded: significantly lower on Days 0–2”. The hemoglobin [3, 6] was “no difference”, the phosphorous levels [3, 6] was “no difference” and the platelet count [3, 6] was “no difference”. The total bilirubin [3, 6] was “no difference” and the “white blood cell count” value [3, 6] was “no difference”.
